{
  "source": "patent US6921773B2",
  "about": "“Use of α-1AR subtype-selective drugs in patients with acute myocardial infarction” (Duke University, priority 1999, dated 2005)",
  "key": {"a1AR subtypes": {"system": "a1AR subtypes", "assay": "Competition analysis against [125I]HEAT in human vessel membranes", "assay_type": "binding", "details": "mammary, renal, splenic arteries, and vena cava; n=3 experiments per vessel", "protocol": "(§1) Vessels were weighed, lumen diameter measured, pulverized under liquid nitrogen, and suspended in cold lysis buffer (5 mmol/L Tris HCl and 5 mmol/L EDTA, pH 7.4) with protease inhibitors.^14 After lysate preparation, membranes were resuspended in cold binding buffer (150 mmol/L NaCl, 50 mmol/L Tris·HCl, 5 mmol/L EDTA, with protease inhibitors, pH 7.4) as previously described;^14 protein concentration was determined using the bicinchoninic acid method (Pierce, Rockford, Ill.). Full saturation binding isotherms were performed in selected human vessels (aorta, mammary artery, saphenous vein) in 250 μl binding buffer (20-60 μg vessel membrane protein) using the α1-adrenergic antagonist [^125I]HEAT(2-[b-(hydroxy-3[^125I]iodophenyl)ethyl-aminomethyl]-tetralone; DuPont-NEN; Boston, Mass.) as previously described.^14 To measure total a1AR density in all vessels, a saturating concentration (300 pmol/L) of the [^125I]HEAT was used."}, "human mammary artery": {"system": "human mammary artery", "assay": "Phenylephrine-induced mammary artery contraction (isometric tension, organ chambers), with or without a1AR antagonists", "details": "for Shift of phenylephrine dose response by antagonist: prazosin 10^-9 and 10^-8 mol/L, 5-MU/spiperone/BMY7378 10^-8 and 10^-7 mol/L; for Kb: read-out: Potency in inhibiting mammary artery contraction (pKB) (converted)", "text": "Mammary arteries were immersed in cold oxygenated Krebs-Ringer bicarbonate solution (118.3 mmol/L NaCl, 4.7 mmol/L KCl, 1.2 mmol/L MgSO4, 1.2 mmol/L KHPO4, […], 25 mmol/L NaHCO3, […], […]), cleaned of loose connective tissue, cut into 4-5 mm long rings, and suspended for isometric tension recording in organ chambers. One stirrup was anchored to the chamber and the other connected to a strain gauge (FT-102) for measurement of isometric force (MacLab, CB Sciences; Milford, Mass.). All concentration effect curves were performed at optimum resting tone (˜3 g in pilot studies). Contractile response to 60 mmol/L KCI was performed; this determined vessel viability and facilitated normalization of phenylephrine response across vessel rings. Phenylephrine dose-response curves were generated (10^−4-10^−9mol/L) in ½ log order concentrations in the absence/presence of competitive a1AR antagonists. […] Antagonist potency was expressed as the dissociation constant (KB) determined from pKB=log[B]log(DR-1), where [B] is antagonist concentration and DR the dose ratio produced by antagonist. Dose response curves were analyzed using DOSE RESPONSE software (MacLab, CB Sciences)."}, "a1AR": {"target": "a1AR", "assay": "[125I]HEAT saturation binding isotherms in human vessel membranes", "details": "n=2-4", "protocol": "as §1"}, "[1]": {"details": "elderly patients; compared with alfuzosin (non-selective); cited from earlier work"}, "[2]": {"details": "Homo sapiens, phenylephrine dose response curves, mean±SEM"}},
  "note": "Entries after “also recorded” stand apart in the source; their conditions may differ.",
  "data": [
    {"smiles": "COc1ccccc1N1CCN(CCCNc2c(C)c(=O)n(C)c(=O)n2C)CC1", "note": "[5-MU]", "values": [
      {"measurement": "Number of binding sites in competition analysis", "setting": "a1AR subtypes", "value": "binds to two sites"},
      {"measurement": "Potency in inhibiting mammary artery contraction (pKB)", "setting": "human mammary artery; phenylephrine dose response curves, mean±SEM", "value": "8.4±0.63"},
      {"measurement": "Shift of phenylephrine dose response by antagonist", "setting": "human mammary artery", "value": "concentration dependent shift in potency without reducing maximum response"}
    ]},
    {"smiles": "COc1ccccc1N1CCN(CCN2C(=O)CC3(CCCC3)CC2=O)CC1", "note": "[BMY7378]", "values": [
      {"measurement": "Shift of phenylephrine dose response by antagonist", "setting": "human mammary artery", "value": "does not produce a significant shift; also recorded: does not produce a shift in dose response"}
    ]},
    {"smiles": "CNC[C@H](O)c1cccc(O)c1", "note": "[Phenylephrine]", "values": [
      {"measurement": "EC50", "setting": "human mammary artery; Homo sapiens, 10 mammary arteries, mean±SEM, read-out: pD2 of isometric contraction (converted)", "value": 1000, "unit": "nM"}
    ]},
    {"smiles": "O=C1c2ccccc2CCC1CNCCc1ccc(O)c(I)c1", "note": "(stereo not shown) [^125I-HEAT, 2-[b-(hydroxy-3[^125I]iodophenyl)ethyl-aminomethyl]-tetralone]", "values": [
      {"measurement": "Kd", "setting": "a1AR; aorta", "value": "0.13 ± 0.0002", "unit": "nM"},
      {"measurement": "Kd", "setting": "a1AR; mammary artery", "value": "0.13 ± 0.0031", "unit": "nM"},
      {"measurement": "Kd", "setting": "a1AR; saphenous vein", "value": "0.13 ± 0.00065", "unit": "nM"}
    ]},
    {"smiles": "COc1cc2nc(N3CCN(C(=O)c4ccco4)CC3)nc(N)c2cc1OC", "note": "[prazosin]", "values": [
      {"measurement": "Kb", "setting": "human mammary artery; [2]", "value": 0.631, "unit": "nM"},
      {"measurement": "Shift of phenylephrine dose response by antagonist", "setting": "human mammary artery", "value": "concentration dependent shift in potency without reducing maximum response"}
    ]},
    {"smiles": "O=C(CCCN1CCC2(CC1)C(=O)NCN2c1ccccc1)c1ccc(F)cc1", "note": "[spiperone]", "values": [
      {"measurement": "Kb", "setting": "human mammary artery; [2]", "value": 2.51, "unit": "nM"},
      {"measurement": "Shift of phenylephrine dose response by antagonist", "setting": "human mammary artery", "value": "concentration dependent shift in potency without reducing maximum response"}
    ]},
    {"smiles": "CCOc1ccccc1OCCN[C@H](C)Cc1ccc(OC)c(S(N)(=O)=O)c1", "note": "[tamsulosin]", "values": [
      {"measurement": "Blood pressure perturbation", "setting": "[1]", "value": "less blood pressure perturbation"}
    ]}
  ]
}
